Blank lines part the entries; values can stand above or below the compound they belong to.
Key:
Caco2 = experiment: MTT cytotoxicity, Caco2; type: cell-based, human; conditions: 48 h incubation, read-out: Cytotoxic effect, IC50
Protocol: (§1) Cytotoxicity was evaluated against fifteen adherent human cancer cell lines using the MTT test: colorectal adenocarcinoma cells Caco2 (ATCC® HTB-37™), colorectal adenocarcinoma cells HT29 (ATCC® HTB-38™), colon colorectal carcinoma HCT116 (ATCC® CCL-247™), colon adenocarcinoma COLO205 (ATCC® CCL-222™), colorectal adenocarcinoma SW620 (ATCC® CCL-227™), colorectal adenocarcinoma grade IV LoVo (ATCC® CCL-229™), hepatocellular carcinoma Hep 3b (ATCC® HB-8064™), endometrium adenocarcinoma HEC1A (ATCC® HTB-112™), Ishikawa (99040201; Sigma–Aldrich Sigma, St. Louis, MO, USA), cervical adenocarcinoma cells HeLa (ATCC® CCL-2™), lung epithelial carcinoma A549 (ATCC® CRM-CCL-185™), breast epithelial adenocarcinoma cell positive for estrogen and progesterone receptors MCF7 (ATCC® HTB-22™) and negative for expression of estrogen receptor HCC38 (ATCC® CRL-2314™), acute promyelocytic leukemia HL-60 (ATCC® CCL-240™), skin melanoma WM115 (ATCC® CRL-1676™), and 1 suspension cancer cell line: acute lymphoblastic leukemia NALM6 (purchased from the German Collection of Microorganisms and Cell Cultures). HT29, NALM6, HCC-38 and HL-60 cells were cultured in RPMI 1640 medium (Thermo Fisher Scientific, Waltham, MA, USA) supplemented with 10% fetal bovine serum and antibiotic (gentamicin 25 μg ml^−1) (Gibco, Grand Island, New York, NY, USA). For the remaining tumor cell lines, Dulbecco’s minimal essential medium (DMEM, Lonza, Visp, Switzerland) supplemented with 10% fetal bovine serum and antibiotic instead of RPMI 1640 was used. In addition, Human Microvascular Endothelial Cells (HMEC1), which were obtained from the American Type Culture Collection (Manassas, VA, USA), were used as a model of normal cells. HMEC-1 were cultured in MCDB131 medium (Corning Life Sciences, Corning, NY, USA), supplemented with 10% fetal bovine serum, 10 ng/mL Epidermal Growth Factor (Millipore, Burlington, MA, USA) and 10 mM glutamine (Corning Life Sciences). All cells were grown at 37 °C in humidified atmosphere of 5% CO2 in air. The exponential growth of cells was maintained by regular passaging at 90% confluence three times a week using 0.025% trypsin/EDTA (Gibco, Grand Island, New York, NY, USA).
(§2) The cytotoxicity was tested by a standard MTT [3-(4,5-dimethylthiazol-2-yl)-2,5-diphenyltetrazolium bromide] (Sigma, St. Louis, MO, USA) microplate cell viability assay. The anticancer activity of the investigated compounds was evaluated in vitro on the basis of their ability to inhibit the proliferation of various cancer cells. Exponentially growing cells were seeded a day before the experiment into a 96-well microplate (Nunc, Roskilde, Denmark) at a density up to 6–8 × 10^3 cells/mL (depending on the cell line) and exposed to the test compounds at a wide range of concentrations for 48 h. Subsequently, various concentrations of the studied compounds (10^−7–10^−5 M) freshly prepared in DMSO (final concentration of <0.1% DMSO) and diluted with complete culture medium were added. After 48 h incubation, the cells were immediately subjected to a cell viability assay. At this time point, the number of viable cells in each well was estimated by the MTT test. Briefly, 50 µL (5 mg/mL final concentration) of MTT was added to each microplate well. This procedure was then followed by a three- to four-hour incubation at 37 °C. After incubation, MTT solution was replaced with 100 µL DMSO/well, which solubilized the formazan crystals formed by the dehydrogenases of metabolically active cells. Purple formazan absorbance was measured spectrophotometrically at 570 nm.

HCC38 = experiment: MTT cytotoxicity, HCC38; type: cell-based, human; conditions: 48 h incubation, read-out: Cytotoxic effect, IC50
Protocol: as §1, §2

Hep 3b = experiment: MTT cytotoxicity, Hep 3b; type: cell-based, human; conditions: 48 h incubation, read-out: Cytotoxic effect, IC50
Protocol: as §1, §2

PARP1 [1] = experiment: Cleaved PARP level (ELISA), WM115 cells; type: cell-based, human; conditions: WM115, 24 h at IC50 concentration
Protocol: (§3) Cells (1 × 10^6) were seeded in 35 mm dishes and cultured for 24 h in the appropriate medium until they reached log phase growth. […] After incubation, the medium was removed, the cells were washed with PBS solution and trypsinized. The harvested cell pellet was lysed in RIPA buffer (50 mM Tris-HCL, pH 8.0, with 150 mM sodium chloride, 1.0% Igepal CA-630 (NP-40), 0.5% sodium deoxychlorate, and 0.1% sodium dodecyl sulfate) with protease inhibitor (phenylmethylsulfonyl fluoride) (Sigma-Aldrich Sigma, St. Louis, MO, USA). The level of cleaved PARP was estimated using the PARP Cleaved [214/215] ELISA kit (Invitrogen, Waltham, MA, USA) according to the protocol described in the manufacturer’s instructions.

NALM6 = experiment: MTT cytotoxicity, NALM6; type: cell-based, human; conditions: 48 h incubation, read-out: Cytotoxic effect, IC50
Protocol: as §1, §2

HT29 = experiment: MTT cytotoxicity, HT29; type: cell-based, human; conditions: 48 h incubation, read-out: Cytotoxic effect, IC50
Protocol: as §1, §2

Ishikawa = experiment: MTT cytotoxicity, Ishikawa; type: cell-based, human; conditions: 48 h incubation, read-out: Cytotoxic effect, IC50
Protocol: as §1, §2

HEC1A [2] = experiment: Mitochondrial potential, JC-1 probe, HEC1A; type: cell-based, human; conditions: IC50 concentration
Protocol: Cells (10 × 10^3/well) were seeded in black 96-well plates and grown for 24 h to reach the log phase. […] After removing the medium, the cell monolayer was washed twice with PBS solution and 50 μL of the JC-1 probe at a final concentration of 5 μM was added to the wells of the plate. The cells were incubated with the dye for 30 min in a CO2 incubator. Subsequently, the changes in the fluorescence of monomers (λex = 485 nm and λem = 525 nm) and aggregates (λex = 530 nm and λem = 590 nm) using JC-1 were monitored. The results of the tested trials were presented as the ratio of fluorescence of aggregates and JC1 monomers as a percentage of control values, which was assumed to be 100%.

[3] = system: human microvascular endothelial cell line HMEC1; experiment: MTT cytotoxicity, normal endothelial cells HMEC1; type: cell-based; conditions: for IC50: HMEC1 normal endothelial cells, 48 h incubation, read-out: Cytotoxic effect, IC50; for IC50 for HMEC-1 higher than for cancer cells (selectivity): HMEC-1 vs cancer cells
Protocol: as §1, §2

LoVo = experiment: MTT cytotoxicity, LoVo; type: cell-based, human; conditions: 48 h incubation, read-out: Cytotoxic effect, IC50
Protocol: as §1, §2

MCF7 = experiment: MTT cytotoxicity, MCF7; type: cell-based, human; conditions: 48 h incubation, read-out: Cytotoxic effect, IC50
Protocol: as §1, §2

SW620 = experiment: MTT cytotoxicity, SW620; type: cell-based, human; conditions: 48 h incubation, read-out: Cytotoxic effect, IC50
Protocol: as §1, §2

HEC1A [4] = experiment: MTT cytotoxicity, HEC1A; type: cell-based, human; conditions: 48 h incubation, read-out: Cytotoxic effect, IC50
Protocol: as §1, §2

WM115 = experiment: MTT cytotoxicity, WM115; type: cell-based, human; conditions: 48 h incubation, read-out: Cytotoxic effect, IC50
Protocol: as §1, §2

Hela = experiment: MTT cytotoxicity, Hela; type: cell-based, human; conditions: 48 h incubation, read-out: Cytotoxic effect, IC50
Protocol: as §1, §2

HL60 = experiment: MTT cytotoxicity, HL60; type: cell-based, human; conditions: 48 h incubation, read-out: Cytotoxic effect, IC50
Protocol: as §1, §2

A549 = experiment: MTT cytotoxicity, A549; type: cell-based, human; conditions: 48 h incubation, read-out: Cytotoxic effect, IC50
Protocol: as §1, §2

Colo205 [5] = experiment: MTT cytotoxicity, Colo205; type: cell-based, human; conditions: 48 h incubation, read-out: Cytotoxic effect, IC50
Protocol: as §1, §2

Lipophilicity by RP-TLC = type: physicochemical; set-up: key: RM = log(1/Rf − 1), Rf = a/b; conditions: eluent AcCN: H2O at 30–70% v/v, 22 °C
Protocol: All the experimental solutions of standard substances (0.1 mg/mL) were prepared by dissolving ligands (1a–1d) or ruthenium complexes (2a/3a–2d/3d) in ethanol. Commercially-available octadecyl-modified silica aluminum sheets (20 × 20 cm) were cut into 5 × 10 cm plates. The plates were manually spotted with 1.0 μL of freshly prepared solutions using automatic pipets, 5 mm from each edge. The chromatograms for all compounds (1a/2a/3a–1d/2d/3d) were developed using a horizontal developing chamber and the solvent migration distance was about 4.5 cm. The plates were visually inspected under UV light at 254 nm. Each zone was clearly marked and its distance was manually measured. The RP-TLC analyses of lipophilicity were performed at ambient temperature (22 °C). In this experiment, all measurements were performed in triplicate and the obtained results were used in further calculations. The acetonitrile and water mixtures for ligands 1a–1d and arene–ruthenium(II) complexes 2a/3a–2d/3d were used as mobile phases, with […] content increasing in the range of 30–70% v/v, at 5% intervals. Values of the chromatographic retention coefficient Rf (as shown Formula (1)) and RM (as shown Formula (2)), based on received chromatograms, were calculated and converted as follows:(1) Rf=a/b (2) RM=log1/Rf−1

human cancer cell lines = experiment: MTT cytotoxicity, summary statements over the cancer cell line panel; type: cell-based; conditions: read-out: IC50 for seven (2c) and six (3c) cancer cell lines
Protocol: (§4) Cytotoxicity was evaluated against fifteen adherent human cancer cell lines using the MTT test: colorectal adenocarcinoma cells Caco2 (ATCC® HTB-37™), colorectal adenocarcinoma cells HT29 (ATCC® HTB-38™), colon colorectal carcinoma HCT116 (ATCC® CCL-247™), colon adenocarcinoma COLO205 (ATCC® CCL-222™), colorectal adenocarcinoma SW620 (ATCC® CCL-227™), colorectal adenocarcinoma grade IV LoVo (ATCC® CCL-229™), hepatocellular carcinoma Hep 3b (ATCC® HB-8064™), endometrium adenocarcinoma HEC1A (ATCC® HTB-112™), Ishikawa (99040201; Sigma–Aldrich Sigma, St. Louis, MO, USA), cervical adenocarcinoma cells HeLa (ATCC® CCL-2™), lung epithelial carcinoma A549 (ATCC® CRM-CCL-185™), breast epithelial adenocarcinoma cell positive for estrogen and progesterone receptors MCF7 (ATCC® HTB-22™) and negative for expression of estrogen receptor HCC38 (ATCC® CRL-2314™), acute promyelocytic leukemia HL-60 (ATCC® CCL-240™), skin melanoma WM115 (ATCC® CRL-1676™), and 1 suspension cancer cell line: acute lymphoblastic leukemia NALM6 (purchased from the German Collection of Microorganisms and Cell Cultures). […]
(§5) The cytotoxicity was tested by a standard MTT [3-(4,5-dimethylthiazol-2-yl)-2,5-diphenyltetrazolium bromide] […] The anticancer activity of the investigated compounds was evaluated in vitro on the basis of their ability to inhibit the proliferation of various cancer cells. […]

Colo205 [6] = experiment: RNS generation, DAF-FM probe, COLO205; type: cell-based, human; conditions: COLO205, 24 h at IC50 concentration
PARP1 [7] = experiment: Cleaved PARP level (ELISA), COLO205 cells; type: cell-based, human; conditions: COLO205, 24 h at IC50 concentration
Protocol: as §3

HCT116 = experiment: MTT cytotoxicity, HCT116; type: cell-based, human; conditions: 48 h incubation, read-out: Cytotoxic effect, IC50
Protocol: as §4, §5

Lipophilicity, RM (Lipophilicity by RP-TLC): 2.73
SMILES: CCc1cc(CC)n(C(N)=S)n1.Cc1ccc(C(C)C)cc1.F[P-](F)(F)(F)(F)F.[Cl-].[Ru+2] [3b]
IC50 (Caco2): 82.4 ± 8.4 µM
IC50 (HCC38): > 200 µM
IC50 (Hep 3b): 62.4 ± 2.7 µM
increase in level of PARP1 degradation compared to controls (PARP1 [1]): ~140%
IC50 (NALM6): 18.5 ± 2.3 µM
IC50 (HT29): 123 ± 3.7 µM
IC50 (Ishikawa): 121 ± 3.7 µM
decrease in mitochondrial potential (JC-1) (HEC1A [2]): ~50%
IC50 [3]: 135 ± 6.7 µM
IC50 for HMEC-1 higher than for cancer cells (selectivity) [3]: 3–5 times
IC50 (LoVo): 99.1 ± 9.4 µM
IC50 (MCF7): 132 ± 5.3 µM
IC50 (SW620): 78.8 ± 7.4 µM
IC50 (HEC1A [4]): 40.1 ± 2.1 µM
IC50 (WM115): 51.7 ± 5.3 µM
IC50 (Hela): 101 ± 6.7 µM
IC50 (HL60): 52.9 ± 2.1 µM
IC50 (A549): 162 ± 7.9 µM
IC50 (Colo205 [5]): 91.6 ± 1.6 µM

Lipophilicity, RM (Lipophilicity by RP-TLC): 2.61
SMILES: Cc1ccc(C(C)C)cc1.F[P-](F)(F)(F)(F)F.NC(=S)n1nc(-c2ccccc2)cc1O.[Cl-].[Ru+2] [3c]
IC50 (Caco2): 172 ± 8.2 µM
IC50 (human cancer cell lines): < 50 µM
IC50 (HCC38): 131 ± 2.2 µM
IC50 (Hep 3b): 52.1 ± 3.4 µM
increase in nitrogen peroxide (RNS, DAF-FM probe) vs. control (Colo205 [6]): ~25%
IC50 (NALM6): 19.8 ± 1.8 µM
increase in level of PARP1 degradation vs. control (PARP1 [7]): approximately 85%
IC50 (HT29): 128 ± 4.2 µM
IC50 (Ishikawa): 124.3 ± 0.9 µM
IC50 [3]: 164 ± 3.1 µM
IC50 for HMEC-1 higher than for cancer cells (selectivity) [3]: 3–5 times
IC50 (LoVo): 32.4 ± 1.8 µM
IC50 (MCF7): 30.4 ± 2.1 µM
IC50 (SW620): 90.1 ± 1.7 µM
IC50 (HEC1A [4]): 39.9 ± 4.1 µM
IC50 (WM115): 18.7 ± 1.7 µM
IC50 (Hela): 78.8 ± 1.1 µM
IC50 (HL60): 70.4 ± 6 µM
IC50 (A549): 191 ± 4.3 µM
IC50 (Colo205 [5]): 26.7 ± 2.1 µM

SMILES: Cl.[Cl-].[Cl-].[Cl-].[Ru+3].c1c[nH]cn1.c1c[nH]cn1 [NAMI-A, reference compound]
IC50 (Hep 3b): > 200 µM
IC50 (NALM6): > 200 µM
IC50 (HT29): > 200 µM
IC50 (Ishikawa): > 200 µM
IC50 (MCF7): 14.1 ± 1.5 µM
IC50 (HCT116): > 200 µM
IC50 (SW620): > 200 µM
IC50 (HEC1A [4]): > 200 µM
IC50 (WM115): > 200 µM
IC50 (Colo205 [5]): > 200 µM
